# Measurements from publication PMC8592419 (PLoS ONE, 2021).
# Where a SMILES comes first, the peptide text is derived from it.
# Columns and labels:
# [1] = test system: Mab ATCC19977 strain; format: cell-based, Mycobacterium abscessus
# Procedure: (§1) Briefly, serial dilutions of the AMPs were prepared with potassium phosphate buffer (PPB) from the concentration range of 3.125 to 400 μg/ml and then 50 μl of each dilution were added to each 96-well plate. Colonies of the isolate were suspended and then further diluted in Mueller-Hinton broth to obtain a final concentration of 1×10^3 CFU/ml (optimized according to the available AMP stock concentration). Fifty microliters of this inoculum were added to each well of the plates. The plates were incubated for 3 days at 37°C. Plain media and bacterial suspensions without AMPs were used as negative and positive controls. The MIC values were read and recorded. All assays were performed in duplicate and two independent experiments.
# [2] = test system: M. abscessus clinical isolate MAB02; format: cell-based, M. abscessus subsp. abscessus; details: 3 days at 37°C
# Procedure: as §1
# (§2) For the in vitro antimicrobial susceptibility, the same protocol as described above was used. The culture plates were further incubated up to 3 days at 37°C. The MIC values were read and recorded.
# [3] = test system: M. abscessus clinical isolate MAB06; format: cell-based, M. abscessus subsp. abscessus; details: 3 days at 37°C
# Procedure: as §1, §2
# [4] = test system: M. abscessus clinical isolate MAB01; experiment: In vitro antimicrobial susceptibility of potential AMPs, broth microdilution, 3 days; format: cell-based, M. abscessus subsp. abscessus; details: 3 days at 37°C
# Procedure: as §1, §2
# [5] = test system: M. abscessus clinical isolate MAB03; experiment: as above; format: cell-based, M. abscessus subsp. abscessus; details: 3 days at 37°C
# Procedure: as §1, §2
# [6] = test system: M. abscessus clinical isolate MAB04; experiment: as above; format: cell-based, M. abscessus subsp. abscessus; details: 3 days at 37°C
# Procedure: as §1, §2
# [7] = test system: M. abscessus clinical isolate MAB05; experiment: as above; format: cell-based, M. abscessus subsp. abscessus; details: 3 days at 37°C
# Procedure: as §1, §2
# [8] = test system: M. abscessus clinical isolate MAB07; experiment: as above; format: cell-based, M. abscessus subsp. abscessus; details: 3 days at 37°C
# Procedure: as §1, §2
# [9] = test system: M. abscessus clinical isolate MAB08; experiment: as above; format: cell-based, M. abscessus subsp. abscessus; details: 3 days at 37°C
# Procedure: as §1, §2
# [10] = test system: M. abscessus clinical isolate MAB09; experiment: as above; format: cell-based, M. abscessus subsp. abscessus; details: 3 days at 37°C
# Procedure: as §1, §2
# [11] = test system: M. abscessus clinical isolate MAB10; experiment: as above; format: cell-based, M. abscessus subsp. abscessus; details: 3 days at 37°C
# Procedure: as §1, §2
# [12] = test system: M. abscessus clinical isolate MAB11; experiment: as above; format: cell-based, M. abscessus subsp. abscessus; details: 3 days at 37°C
# Procedure: as §1, §2
# [13] = test system: M. abscessus clinical isolate MAB12; experiment: as above; format: cell-based, M. abscessus subsp. massiliense; details: 3 days at 37°C
# Procedure: as §1, §2
# [14] = test system: M. abscessus clinical isolate MAB14; experiment: as above; format: cell-based, M. abscessus subsp. massiliense; details: 3 days at 37°C
# Procedure: as §1, §2
# [15] = test system: M. abscessus clinical isolate MAB15; experiment: as above; format: cell-based, M. abscessus subsp. massiliense; details: 3 days at 37°C
# Procedure: as §1, §2
# [16] = test system: M. abscessus clinical isolate MAB16; experiment: as above; format: cell-based, M. abscessus subsp. massiliense; details: 3 days at 37°C
# Procedure: as §1, §2
# [17] = test system: M. abscessus clinical isolate MAB13; format: cell-based, M. abscessus subsp. massiliense; details: 3 days at 37°C
# Procedure: as §1, §2
# [18] = test system: human red blood cells (RBCs); experiment: Hemolytic toxicity test; format: cell-based; details: for Hemolytic activities (%hemolysis): human RBCs, 1 h at 37°C, mean±SD of duplicates, two independent experiments
# Procedure: For the hemolytic toxicity test, red blood cells (RBCs) from fresh blood samples of healthy volunteers were obtained by centrifugation at 1,000 rpm for 5 min. The cells were washed three times with sterile phosphate buffered saline (PBS) and adjusted into 1×10^8 cells/ml. AMPs were diluted with PPB in ranging from 6.25 to 400 μg/ml. Fifty microliters of the RBC suspensions and 50 μl of AMP solutions were added to 1.5 ml sterile microtubes, incubated for 1 h at 37°C and then centrifuged at 1,000 rpm for 5 min. The supernatants were transferred to new 96-well microtiter plates for measurement of the absorbance at 540 nm using a microplate reader. RBC suspensions treated with 2% (v/v) Triton X-100 and PBS solution were used as positive and negative controls. The percentages of hemolysis were calculated using the following formula: % of RBC lysis = 100 × [(Test—PBS) / (Positive control—PBS)]. All assays were performed in duplicate and two independent experiments.
# [19] = test system: human peripheral blood mononuclear cells (PBMCs); experiment: PBMC toxicity, trypan blue exclusion assay; format: cell-based; details: 1 h at 37°C, mean±SD of duplicates, two independent experiments
# Procedure: For the toxicity of the potential AMPs to human peripheral blood mononuclear cells (PBMCs), the trypan blue exclusion assay was used. Fresh human PBMCs were prepared from blood samples of healthy volunteers using the Ficoll density gradient technique. The cells were centrifuged at 1,800 rpm for 20 min at 20°C and washed three times with PBS and adjusted with RPMI-1640 medium into 6.25×10^5 cells/ml. Fifty microliters of PBMC suspension and 50 μl of AMP solutions (6.25–400 μg/ml) were added to the 96-well microtiter plates and incubated for 1 h at 37°C. Then, 20 μl of the samples were mixed with 20 μl of 0.4% (w/v) trypan blue solution (0.81% NaCl and 0.06% (w/v) dibasic potassium phosphate) in microtubes and incubated for 3 min at room temperature. The PBMC suspensions treated with PBS were used as negative controls. PBMCs were counted using a dual-chamber hemocytometer under a light microscope. Viable and non-viable cells were counted under a microscope and the percentage of viable cells was calculated using the following formula: % of viable cells = [1.00 –([…] / Number of total cells)] × 100. All assays were performed in duplicate with two independent experiments.
# [20] = test system: sixteen clinical Mab isolates; experiment: 24-hour bactericidal activity assay, summary over isolates; format: cell-based, Mycobacterium abscessus; details: majority of the tested strains (10/16 isolates); equivalent of <50 μg/ml
# Procedure: as §1
# Potential AMPs from the screening assays were subjected to determine the 24-hour bactericidal activity assays (corresponding to the common time of administration) with sixteen clinical Mab isolates using the protocol as described above. To observe the early antimicrobial activities, the plates were incubated for 24 h at 37°C. The samples from each well were further diluted in 0.05% Tween 80 and inoculated on Mueller-Hinton agar. After incubation for 3 days at 37°C, the colony-forming units (CFUs) were counted and calculated for the percentage of killing using the following formula: % killing = 1 - (CFU sample/ CFU control) ×100.
# [21] = test system: clinical isolates of M. abscessus; experiment: In vitro susceptibility of potential AMPs, 3 days, summary over isolates; format: cell-based, Mycobacterium abscessus; details: isolates MAB01 and MAB03
# Procedure: as §1, §2
smiles,measurement,setting,value
CC(C)C[C@H](NC(=O)[C@H](CCCCN)NC(=O)[C@H](CC(C)C)NC(=O)[C@H](CC(C)C)NC(=O)[C@H](CC(C)C)NC(=O)[C@H](CC(C)C)NC(=O)[C@H](CC(C)C)NC(=O)[C@H](CCCCN)NC(=O)[C@H](CC(C)C)NC(=O)[C@@H](N)CCCCN)C(=O)O [KLK1] (H-KLKLLLLLKL-OH),MIC values,[1],400 mg/L
same,"Antimicrobial peptides against M. abscessus isolates, MIC value",[2],>400 mg/L
same,"Antimicrobial peptides against M. abscessus isolates, MIC value",[3],>400 mg/L
same,"Antimicrobial peptides against M. abscessus isolates, MIC value",[4],25 mg/L
same,"Antimicrobial peptides against M. abscessus isolates, MIC value",[5],50 mg/L
same,"Antimicrobial peptides against M. abscessus isolates, MIC value",[6],>400 mg/L
same,"Antimicrobial peptides against M. abscessus isolates, MIC value",[7],>400 mg/L
same,"Antimicrobial peptides against M. abscessus isolates, MIC value",[8],>400 mg/L
same,"Antimicrobial peptides against M. abscessus isolates, MIC value",[9],>400 mg/L
same,"Antimicrobial peptides against M. abscessus isolates, MIC value",[10],>400 mg/L
same,"Antimicrobial peptides against M. abscessus isolates, MIC value",[11],>400 mg/L
same,"Antimicrobial peptides against M. abscessus isolates, MIC value",[12],>400 mg/L
same,"Antimicrobial peptides against M. abscessus isolates, MIC value",[13],>400 mg/L
same,"Antimicrobial peptides against M. abscessus isolates, MIC value",[14],>400 mg/L
same,"Antimicrobial peptides against M. abscessus isolates, MIC value",[15],>400 mg/L
same,"Antimicrobial peptides against M. abscessus isolates, MIC value",[16],>400 mg/L
same,"Antimicrobial peptides against M. abscessus isolates, MIC value",[17],>400 mg/L
same,Hemolytic activities (%hemolysis),[18]; 6.25 µg/mL,0.7±0.50%
same,Hemolytic activities (%hemolysis),[18]; 12.5 µg/mL,4.93±2.49%
same,Hemolytic activities (%hemolysis),[18]; 25 µg/mL,8.27±1.74%
same,Hemolytic activities (%hemolysis),[18]; 50 µg/mL,12.15±0.25%
same,Hemolytic activities (%hemolysis),[18]; 100 µg/mL,15.85±1.49%
same,Hemolytic activities (%hemolysis),[18]; 200 µg/mL,18.13±0.25%
same,Hemolytic activities (%hemolysis),[18]; 400 µg/mL,22.18±1.99%
same,hemolysis at the MICs level,"[18]; at the MICs level, single figure of the abstract",10.21%
same,Viable cells of PBMCs (% viable cells),[19]; 6.25 µg/mL,102.52±5.04%
same,Viable cells of PBMCs (% viable cells),[19]; 12.5 µg/mL,100.00±2.95%
same,Viable cells of PBMCs (% viable cells),[19]; 25 µg/mL,92.70±4.41%
same,Viable cells of PBMCs (% viable cells),[19]; 50 µg/mL,94.34±2.80%
same,Viable cells of PBMCs (% viable cells),[19]; 100 µg/mL,91.68±8.42%
same,Viable cells of PBMCs (% viable cells),[19]; 200 µg/mL,65.81±4.51%
same,Viable cells of PBMCs (% viable cells),[19]; 400 µg/mL,44.62±7.22%
same,MIC with ~99% killed within 24 h,[20],< 41.85 µM
same,MIC values after 3 days,[21],20.93 to 41.85 µM
